One molecule from patent publication US20260000670A1 (priority 2022, published 2026) can be followed below.

Assay [1] has as its system human whole blood. Description: AAV-mediated cytokine release in human whole blood (one AAV8 pre-immune donor). The format is cell-based. The settings on record: dasatinib 12.5 or 50 nM, 24 hrs with 5E11 vg/mL AAV8-hSEAP. The protocol:
FIGS. 5A-5B. Effect of dasatinib on AAV-mediated cytokine release in human whole blood. The production of low levels of IFN-γ and IL-6 in whole blood are stimulated after 24 hrs incubation with 5E11 vg/mL of AAV8-hSEAP. […] Depicted are cytokine concentrations (pg/mL+/−SD, left), fold increases over the level measured in the PBS control (middle) and percentages of inhibition of AAV-dependent cytokine release (right, calculated as 100 × (concentration with AAV8 alone-concentration with AAV8 and dasatinib)/(concentration with AAV8 alone)), respectively. (FIG. 5A) Interferon-γ production. (FIG. 5B) IL-6 production.
To assess whether dasatinib could affect AAV-mediated cytokine release, an assay was performed in whole blood from a healthy donor. This donor was seropositive for anti-AAV8 antibodies (IgG titer: 1/21870; IgM titer: 1/810). Whole blood from an AAV8 pre-immune donor was incubated in triplicates with 5E11 vg/mL (GC/mL) of an AAV8-hSEAP vector, in the presence or absence of 12.5 nM or 50 nM dasatinib. Lipopolysaccharide (LPS) and Lemtrada (alemtuzumab, anti-CD52, Genzyme), a monoclonal antibody known to induce strong cytokine release in blood, were used as positive controls at a concentration of 1 μg/ml and 0.1 μg/ml respectively. […] After 24 hrs, plasma supernatants were collected and cytokines measured using Quanterix kits with the SP-X imaging and analysis system (Simoa).

In assay [2] the test system is human whole blood. Description: AAV8-dependent cytokine release in human whole blood from four healthy donors with IVIG. Type of assay: cell-based. As to the method:
FIGS. 6A-6C: Dasatinib inhibits AA V8-dependent cytokine release in human whole blood. Fresh whole blood from 4 healthy donors was incubated with either PBS or AAV8-hSEAP (5e11 vg/mL) with IVIG (PRIVIGEN, 1/100) for 24 hrs. Dasatinib was added at the concentration of 50 nM 1 hr before addition of AAV8. In some of the culture wells, a second dose of dasatinib was added 9 hrs after AAV8 treatment (dasa 50 nM 2x). After 24 hrs, the plasma was collected and cytokines measured using Quanterix kits. Depicted are the cytokine fold increases over PBS for IFN-γ and TNF-α (FIG. 6A), IL-6 and IL-1x (FIG. 6B), and IL-2 and IL-1β (FIG. 6C), with the percentages of inhibition in the presence of dasatinib (means +/−SEM).
To study in more detail the effects of dasatinib on AAV-dependent cytokine release, another whole blood assay was performed. Whole blood from four healthy donors was incubated with AAV8-hSEAP (5e11 vg/ml) for 24 hrs. Intravenous Immunoglobulin (IVIG, Privigen) which contains anti-AAV antibodies was added to the blood samples. Dasatinib was added at 50 nM 1 hr before the AAV treatment, PBS was used as a negative control. As the half-life of dasatinib is very short (Lindauer M et al, Recent Results Cancer Res. 2010;184:83-102), a second dasatinib addition was performed 9 hrs after the AAV treatment. After 24 hrs, plasma supernatants were collected and cytokines measured using Quanterix kits. […] Inhibition of AAV-mediated cytokine release likely contributes to the effect of dasatinib on antibody formation.

Where [3] appears, read: dasatinib 50 nM, 24 hrs, AAV8-hSEAP 5e11 vg/ml with IVIG.

For the molecule `Cc1nc(Nc2ncc(C(=O)Nc3c(C)cccc3Cl)s2)cc(N2CCN(CCO)CC2)n1` [dasatinib, N-(2-chloro-6-methylphenyl)-2-[[6-[4-(2-hydroxyethyl)-1-piperazinyl]-2-methyl-4-pyrimidinyl]amino]-5-thiazole carboxamide monohydrate], in the assay with human whole blood [1], the IFN-γ production entry was “reduced dose-dependently” and the IL-6 production result is reported as “reduced dose-dependently”. The “inhibition of cytokine production with second dasatinib addition versus single addition” value in the assay with human whole blood [2] (dasatinib 50 nM added both 1 hr before and 9 hrs after AAV treatment) is “more pronounced”. Also, in the assay on human whole blood [2] (setting [3]), the “production of IFN-Y” value is “inhibited”, the “production of IL-1β” value is reported as “inhibited”, the “production of IL-2” value is “inhibited” and the “production of IL-6” value is “inhibited”. Besides, in the assay with human whole blood [2] (setting [3]), the “production of IL-la” value was “inhibited” and the “production of TNF-α” value is “inhibited”.
